Test results from patent US8227516B2, “Compounds as histone deacetylase inhibitors” (4SC Discovery GmbH, priority 2002, dated 2012).
Where two headings read alike, the source gives them in different places.

Key:
[1] = test system: HDAC-dependent transcriptional repression in reporter cell line UAS TK-luc (293T cells); experiment: Transcriptional reporter gene assay (UAS TK luciferase, Gal4-repressor fusion); assay type: cell-based; conditions: for concentration at which induction of luciferase reporter gene expression starts: 24 hours treatment; for fold induction at 8 µM: Homo sapiens, HEK-293T, read-out: fold induction of luciferase reporter gene expression
Protocol: Depicted is the fold induction of luciferase expression after treatment of cells at the indicated concentrations of Compounds 1, 2 and 3.
Transcriptional reporter gene assay. The transcriptional assay for repressor activity exploits activation and derepression of a Gal4-dependent reporter gene (Hildebrand et al., 2001, J Biol Chem 276, 9889-95; Maurer et al., 2002, Blood 99, 2647-52). This assay is performed with specifically constructed permanent cell lines. 293T cell were stably transfected with a UAS TK luciferase reporter plasmid (Heinzel et al., 1997 Nature 387, pp 43-48) and an expression plasmid for the Gal4 DNA binding domain fused to an HDAC-dependent repressor molecule. While Gal4 fusion proteins repress this activity, HDAC inhibitors induce relief of this repression which can be detected as an increase in reporter gene activity (e.g. by luciferase activity detection assay).
Addition of Compounds 1, 2 and 3 relieve this repression as measured by increased expression and activity of luciferase in lysates of treated cells after 24 hours. Both, Compound 1 and 2 induce luciferase reporter gene expression after stimulation of cells for 24 hours starting at a concentration of 8 μM (2-3 fold) with a maximum induction of more than 20 fold at 200 μM. Compound 3, however, induces expression of reporter gene already at a concentration of 1.6 μM with a maximum induction of almost 40 fold at 40 μM.

[2] = test system: histone H4 acetylation in 293T cells; experiment: Induction of histone H4 hyperacetylation, Western Blot; assay type: cell-based; conditions: 6 hours
From the text: Induction of histone hyperacetylation. These acetylated histones can be detected by Western Blot analysis of whole cell extracts from histone deacetylase inhibitor-treated 293T cells using antibodies specific for the acetylated N-terminal lysine residues of histones H4 (Göttlicher et al., 2001, EMBO J. 20, 6969-78).
Since histone deacetylase inhibitors shift the enzymatic balance between histone acetyl transferases (HAT's) and histone deacetylases (HDAC's) towards HAT's by blocking HDAC's, they induce the accumulation of N-terminally hyperacetylated histones H4. This can be seen in FIG. 2 by the induction of histone hyperacetylation after treatment of 293T cells for 6 hours with Compounds 1, 2 and 3. Hyperacetylation can be seen with Compounds 1 and 2 at a concentration as low as 1.6 μM with a maximum induction at […], whereas compound 3 induces hyperacetylation starting at 320 nM.

[3] = test system: HDAC activity in nuclear extracts from HeLa cells; experiment: In vitro HDAC activity in HeLa nuclear extracts (Fluor de Lys); assay type: biochemical; conditions: read-out: concentration giving 50% reduction of HDAC activity
From the text: Relative HDAC activity is shown as percent of activity of untreated nuclear extracts.
(§1) In vitro inhibition of recombinant HDAC's. The determination of histone deacetylase activity in HeLa nuclear extracts or recombinant HDAC proteins from High5 insect cells is based on the specific deacetylation of an artificial substrate (Fluor de Lys, Biomol). The substrate turn over may be detected and quantified by fluorometry. By addition of a potential HDAC inhibitor the hydrolysis of the substrate is constrained resulting in a decreased fluorometric signal. IC50 values may be calculated from dose-response curves.
(§2) The assay is separated in two steps: in the first step the substrate (Fluor de Lys/Biomol KI-104) is hydrolysed by histone deacetylases. In step two HDAC activity is terminated and the fluorophore is activated by the addition of a developer (Developer/Biomol KI-105). Nuclear extracts from HeLa cells (Biomol KI-140) or recombinant proteins and the potential HDAC inhibitor are mixed with reaction buffer (Biomol KI143) to a total volume of 25 μl per well of a 96 well plate. 25 μl substrate (1:100 dilution in reaction buffer) per well are added to start the reaction. A negative control without histone deacetylase activity and a positive control without HDAC inhibitor are treated likewise. The reaction is stopped after 15-60 min. by adding 50 μl developer (1:20 dilution in reaction buffer). After another 15 min. incubation time at room temperature the fluorescence signal is stable for 60 min and may be detected by a fluorescence reader (excitation filter: 390 nm, emission filter: 460 nm).

[4] = test system: p21 expression in K562 cells; experiment: Protein expression profiling, Western Blot: p21 induction; assay type: cell-based; conditions: 36 hours
From the text: (§3) Protein expression profiling. The expression pattern induced by histone deacetylase inhibitors can be monitored by Western Blot analysis with antibodies against p21 and BCL-XL using whole cell extracts of cells treated with the respective compounds at the indicated concentrations. Modulation of protein expression is exemplified by the induction of expression of the cell cycle inhibitor/tumor suppressor p21 and the suppression of expression of the anti-apoptotic molecule BCL-XL.

[5] = test system: BCL-XL expression in K562 cells; experiment: Protein expression profiling, Western Blot: BCL-XL down-regulation; assay type: cell-based; conditions: 36 hours
From the text: as §3

[6] = test system: human tumor cell lines of breast, colon, pancreas and prostate origin; experiment: Growth inhibition of tumor cell lines (SRB assay); assay type: cell-based; conditions: various cancer cell lines, 72 hours
Protocol: Growth inhibition of tumor cell lines. The reduction in cellular biomass was measured by SRB-assay. For this assay cells were seeded in 96 well culture dishes at densities between 3000 and 8000 cells per well. After recovery of 24 hours cells were cultured for 48-72 hours in the absence or presence of the indicated concentrations of compounds. Synergistic reduction in total cellular biomass was assayed through SRB-assay by adding the compounds in the medium at the indicated concentrations and cultivate the cells for further 48 hours.
Cells were fixed with cold Trichloracetat (TCA) producing a final TCA concentration of 10%. After 1 hour of incubation at 4° C. the cells were washed five times with water and air dried. Fixed cells were stained for 30 minutes with 0.4% (wt/vol) Sulforhodamine B (SRB) dissolved in 1% acetic acid and washed four times with 1% acetic acid to remove unbound dye. After air drying bound dye was solubilized with 10 mM unbuffered Tris base (pH 10.5) for 5 minutes. Optical densities (OD) were read on a Molecular Devices Versa Max tunable microplate reader at 520-550 nm. Four test wells for each dose-response were set in parallel with 12 control wells per cell line. Measurement of the cell population density at time 0 (To; the time at which the drug was added) was also made from 12 reference wells of cells fixed with TCA just prior to drug addition to the test plates. Background OD of complete medium with 5% FBS fixed and stained as described above was also determined in 12 separate wells. From the unprocessed OD data from each microtiter plate the background OD measurements (i.e. OD of complete medium plus stain and OD of cells at T0) were subtracted thus giving the reduction of cellular biomass of the cells.

[7] = test system: BV-173 cells; experiment: Measurement of apoptosis, FACS sub-G1 by propidium iodide staining; assay type: cell-based; conditions: with Z-VAD, 24 hours
From the text: Measurement of Apoptosis. FACS analysis of the cell cycle by propidium iodide (PI) staining. The cell cycle can be divided into four different sections: During G0/1-phase cells are in senescence or proliferate, in S-phase cells start replicating their DNA, and during G2- and M-phase cells undergo mitosis. […] Degradation of DNA is a marker for apoptosis. The sub-G1 area indicates the hypodiploid DNA peak corresponding to cells with fragmented DNA undergoing apoptosis Using a dye that intercalates with DNA (such as propidium iodide—PI) the cellular DNA content was determined. Between 5×10^5-1×10^6 cells were seeded out in cell culture dishes and treated for the desired time with the desired amount of test compound. After the incubation cells were harvested, washed in cold PBS, and the cell pellet was resuspended in 1 ml 70% ethanol (−20° C.). These cell pellets may be shelved for several month.
For PI staining 3 ml cold sodium citrate solution (38 mM, pH 7.4) was added, cells were pelleted and stained with 500 μl sodium citrate solution (38 mM, pH 7.4) containing 50 μg/ml PI and 5 μg/ml RNase. After a 30 minute incubation time at 37° C. in darkness, cells were analyzed via FACS analysis. The sub-G1-peak constitutes the amount of apoptotic cells.

[8] = target: T1, recombinant HDAC1 (Homo sapiens, UniProt Q13547); experiment: In vitro inhibition of recombinant HDAC1 (Fluor de Lys); assay type: biochemical; conditions: read-out: concentration giving 50% reduction of HDAC activity
T1 construct: made in house; host or cells: High5 insect cells
T1 sequence (Q13547 whole entry, species assumed): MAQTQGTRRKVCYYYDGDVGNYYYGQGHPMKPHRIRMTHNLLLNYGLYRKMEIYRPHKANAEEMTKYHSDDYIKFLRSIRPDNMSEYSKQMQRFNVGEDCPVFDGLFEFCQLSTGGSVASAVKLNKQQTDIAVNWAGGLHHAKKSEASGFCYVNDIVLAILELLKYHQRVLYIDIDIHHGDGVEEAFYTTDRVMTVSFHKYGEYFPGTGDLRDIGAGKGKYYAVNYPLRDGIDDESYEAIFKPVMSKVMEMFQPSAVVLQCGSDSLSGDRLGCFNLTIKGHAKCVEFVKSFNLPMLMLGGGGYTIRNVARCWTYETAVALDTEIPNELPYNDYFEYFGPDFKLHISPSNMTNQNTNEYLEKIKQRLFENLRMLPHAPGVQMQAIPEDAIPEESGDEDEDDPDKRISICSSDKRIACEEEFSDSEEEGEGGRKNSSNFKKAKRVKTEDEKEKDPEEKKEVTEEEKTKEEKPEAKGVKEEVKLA
From the text: (§4) Relative HDAC activity is shown as percent of activity of untreated HDAC enzymes.
as §1
as §2, with “A negative control without histone deacetylase activity and a positive control without HDAC inhibitor are treated likewise. The reaction is stopped after 15-60 min. by adding 50 μl developer (1:20 dilution in reaction buffer).” left out

[9] = target: T2, recombinant HDAC6 (Homo sapiens, UniProt Q9UBN7); experiment: In vitro inhibition of recombinant HDAC6 (Fluor de Lys); assay type: biochemical; conditions: read-out: concentration giving 50% reduction of HDAC activity
T2 construct: made in house; host or cells: High5 insect cells
T2 sequence (Q9UBN7 1-1215): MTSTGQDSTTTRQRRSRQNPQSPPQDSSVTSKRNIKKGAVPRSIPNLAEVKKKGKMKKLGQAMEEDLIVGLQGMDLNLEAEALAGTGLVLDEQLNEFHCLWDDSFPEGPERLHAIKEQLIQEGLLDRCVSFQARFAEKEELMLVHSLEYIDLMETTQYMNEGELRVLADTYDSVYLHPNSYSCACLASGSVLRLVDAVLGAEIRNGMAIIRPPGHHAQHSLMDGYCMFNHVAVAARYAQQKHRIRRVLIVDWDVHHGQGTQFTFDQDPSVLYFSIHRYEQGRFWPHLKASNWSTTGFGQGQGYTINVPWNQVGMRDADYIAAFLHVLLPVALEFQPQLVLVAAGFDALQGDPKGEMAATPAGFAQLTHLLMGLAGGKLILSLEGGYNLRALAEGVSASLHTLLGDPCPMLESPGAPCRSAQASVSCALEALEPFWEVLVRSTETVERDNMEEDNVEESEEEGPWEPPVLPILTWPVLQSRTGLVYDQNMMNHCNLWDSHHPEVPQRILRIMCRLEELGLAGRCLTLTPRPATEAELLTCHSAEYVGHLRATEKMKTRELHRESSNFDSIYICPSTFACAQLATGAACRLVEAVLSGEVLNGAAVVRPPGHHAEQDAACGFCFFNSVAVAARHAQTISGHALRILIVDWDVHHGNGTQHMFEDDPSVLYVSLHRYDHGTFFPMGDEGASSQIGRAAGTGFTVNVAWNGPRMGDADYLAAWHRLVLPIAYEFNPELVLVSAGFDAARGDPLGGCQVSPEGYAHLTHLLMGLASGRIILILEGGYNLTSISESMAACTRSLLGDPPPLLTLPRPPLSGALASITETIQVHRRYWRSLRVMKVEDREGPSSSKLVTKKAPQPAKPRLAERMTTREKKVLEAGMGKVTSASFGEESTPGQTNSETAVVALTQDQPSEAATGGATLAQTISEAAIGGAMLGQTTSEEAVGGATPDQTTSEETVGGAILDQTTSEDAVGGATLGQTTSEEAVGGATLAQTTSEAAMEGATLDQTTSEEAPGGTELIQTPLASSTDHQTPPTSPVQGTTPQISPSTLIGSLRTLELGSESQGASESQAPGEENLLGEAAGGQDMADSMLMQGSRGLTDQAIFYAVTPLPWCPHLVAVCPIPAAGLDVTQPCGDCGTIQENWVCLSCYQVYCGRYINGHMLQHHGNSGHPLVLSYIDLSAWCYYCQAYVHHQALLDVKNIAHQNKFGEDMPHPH
From the text: as §4, §1
as §2, with “A negative control without histone deacetylase activity and a positive control without HDAC inhibitor are treated likewise. The reaction is stopped after 15-60 min. by adding 50 μl developer (1:20 dilution in reaction buffer).” left out

[10] = target: T3, recombinant HDAC8 (Homo sapiens, UniProt Q9BY41); experiment: In vitro inhibition of recombinant HDAC8 (Fluor de Lys); assay type: biochemical; conditions: read-out: concentration giving 50% reduction of HDAC activity
T3 construct: made in house; host or cells: High5 insect cells
T3 sequence (Q9BY41 1-377): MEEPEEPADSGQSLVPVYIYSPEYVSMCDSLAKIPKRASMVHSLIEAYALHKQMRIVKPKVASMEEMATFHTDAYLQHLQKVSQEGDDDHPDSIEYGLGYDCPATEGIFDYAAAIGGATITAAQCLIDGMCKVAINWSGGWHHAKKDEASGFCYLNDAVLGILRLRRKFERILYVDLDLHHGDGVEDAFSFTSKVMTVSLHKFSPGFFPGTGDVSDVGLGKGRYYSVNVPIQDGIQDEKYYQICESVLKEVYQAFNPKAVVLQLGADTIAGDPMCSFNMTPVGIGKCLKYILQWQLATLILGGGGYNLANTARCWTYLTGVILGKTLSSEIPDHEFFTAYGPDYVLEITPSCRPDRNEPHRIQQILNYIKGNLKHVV
From the text: as §4, §1
as §2, with “A negative control without histone deacetylase activity and a positive control without HDAC inhibitor are treated likewise. The reaction is stopped after 15-60 min. by adding 50 μl developer (1:20 dilution in reaction buffer).” left out

[11] = read-out: concentration inducing 50% growth arrest (IC50), mean over cell lines
[12] = read-out: concentrations inducing 50% growth arrest (IC50), range over cell lines

| Compound | concentration at which induction of luciferase reporter gene expression starts [1] [µM] | fold induction at 8 µM ([1]; 24 hours) | concentration of maximum induction of histone H4 hyperacetylation [2] [µM] | lowest concentration at which histone H4 hyperacetylation is seen [2] [µM] | IC50 [3] [µM] | concentration inducing p21 expression [4] [µM] | concentration inducing BCL-XL downregulation [5] [µM] | IC50 [6, 11] [µM] | IC50 [6, 12] [µM] | apoptotic process in the presence of pan-caspase inhibitor Z-VAD [7] | maximum induction of luciferase reporter gene expression ([1]; at 40 μM, 24 hours) [fold] | concentration at which histone H4 hyperacetylation starts [2] [nM] | IC50 [8] [µM] | IC50 [9] [µM] | IC50 [10] [µM] |
| --- | --- | --- | --- | --- | --- | --- | --- | --- | --- | --- | --- | --- | --- | --- | --- |
| O=C(CCC1CCCC1)NO [Compound 1, 3-Cyclopentyl-N-hydroxy-propionamide] | 8 | 2 to 3 | 40 | 1.6 | 14.7 | 40 | 200 | 33 | 8 to 70 | completely blocked |  |  |  |  |  |
| O=C(CCC1CCCCC1)NO [Compound 2, 3-Cyclohexyl-N-hydroxy-propionamide] | 8 | 2 to 3 | 40 | 1.6 | 6.1 | 8 | 8 | 15 | 5 to 26 | completely blocked |  |  |  |  |  |
| O=C(C=CC1CCCCC1)NO [Compound 3, 3-Cyclohexyl-N-hydroxy-acrylamide] | 1.6 |  |  |  | 0.9 | 8 | 8 | 2.6 | 0.5 to 8 | completely blocked | ~40 | 320 | 0.3 to 0.4 | 0.3 to 0.4 | 0.3 to 0.4 |
